In patent publication US5827245A, “Transdermal therapeutic system comprising the active subtance 17-β-Estradiol (Anhydrous)” (LTS Lohmann Therapie-Systeme GmbH & Co. KG, priority 1992, dated 1998):

Key:
[1] = short period of time; cited from earlier work
[2] = Thermal stability / conversion of 17-β-estradiol semihydrate to the anhydrous form; type: physicochemical
Method: At room temperature and usual relative humidity of air (20 to 60% relative humidity), 17-β-estradiol is not present in one of the two known modifications (I and II) which are free from crystal water but as a semihydrate (Busetti a. Hospital, Acta Cryst. 1972, B28, 560). Due to the stratified structure of the crystal compound, which is stabilized by hydrogen bridges, and its diffusion density, the hydrate can be heated for a short period of time to temperatures of about 170° C. (Kuhnert-Brandstatter u. Winkler (1976) Scientia Pharmaceutica 44 (3), 177-190) while remaining undecomposed. However, by way of micronization, i.e. increasing the surface of the crystals, it is possible to quantitatively convert 17-β-estradiol semihydrate to its anhydrous form at as low a temperature as about 120° C. According to our own observations, conversion already occurs at about 90° C. where heating is slow (0.2 to 1 K/min) and particularly fine material is used.

## C[C@]12CC[C@@H]3c4ccc(O)cc4CC[C@H]3[C@@H]1CC[C@@H]2O [17-β-estradiol semihydrate]
[1]
  temperature to which the hydrate can be heated while remaining undecomposed: about 170 °C
[2]; micronized
  temperature of quantitative conversion to the anhydrous form: about 120 °C
[2]; slow heating (0.2 to 1 K/min), particularly fine material, own observations
  temperature at which conversion already occurs: about 90 °C
